The text below walks through data of patent publication US20250388605A1, “HETEROBIFUNCTIONAL COMPOUNDS AND METHODS OF TREATING DISEASE” (Halda Therapeutics OpCo, Inc., priority 2022, published 2025).

One test has as its target T1, BRD4-BD2 (Homo sapiens, UniProt O60885).
T1 construct: made in house; host or cells: T7 phage grown in an E. coli host derived from the BL21 strain
In words: Binding affinity to BRD4-BD2 (bromoKdELECT assay). To be noted: 11-point 3-fold dilution series. Here is the method:
Compounds were tested using a bromoKdELECT assay. T7 phage strains displaying bromodomains were grown in parallel in 24-well blocks in an E. coli host derived from the BL21 strain. E. coli were grown to log-phase and infected with T7 phage from a frozen stock (multiplicity of infection=0.4) and incubated with shaking at 32° C. until lysis (90-150 minutes). The lysates were centrifuged (5,000×g) and filtered ([…]) to remove cell debris. Streptavidin-coated magnetic beads were treated with biotinylated small molecule or acetylated peptide ligands for 30 minutes at room temperature to generate affinity resins for bromodomain assays. The liganded beads were blocked with excess biotin and washed with blocking buffer (SeaBlock (Pierce), 1% BSA, 0.05% Tween 20, 1 mM DTT) to remove unbound ligand and to reduce nonspecific phage binding. Binding reactions were assembled by combining bromodomains, liganded affinity beads, and test compounds in 1× binding buffer (17% SeaBlock, 0.33×PBS, 0.04% Tween 20, 0.02% BSA, 0.004% Sodium azide, 7.4 mM DTT). Test compounds were prepared as 1000× stocks in 100% DMSO. Kds were determined using an 11-point 3-fold compound dilution series with one DMSO control point. All compounds for Kd measurements are distributed by acoustic transfer (non-contact dispensing) in 100% DMSO. The compounds were then diluted directly into the assays such that the final concentration of DMSO was 0.09%. All reactions performed in polypropylene 384-well plates. Each was a final volume of 0.02 ml. The assay plates were incubated at room temperature with shaking for 1 hour and the affinity beads were washed with wash buffer (1×PBS, 0.05% Tween 20). The beads were then resuspended in elution buffer (1×PBS, 0.05% Tween 20, 2 μM non-biotinylated affinity ligand) and incubated at room temperature with shaking for 30 minutes. The bromodomain concentration in the eluates was measured by qPCR.

Test [1] has as its system T-Rex 293 cell line SC3 cells having increased expression of androgen receptor protein due to exposure to doxycycline. In words: Cellular growth inhibition, T-Rex 293 SC3 cells with doxycycline (increased androgen receptor expression), CellTiter-Glo. To be noted: T-Rex 293 SC3 cells with 10 ng/mL doxycycline (increased androgen receptor expression), 72 hours, CellTiter-Glo 2.0. Format: cell-based. An outline of the steps:
(§1)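 Doxycycline (10 ng/mL) was either included or omitted to toggle wild-type androgen receptor expression in SC3 cells, a T-Rex 293 clone, grown in stripped-serum, phenol red-free medium. After 72 hours with compound, viable cells were quantified by CellTiter-Glo 2.0.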

The subject of a further test is VCaP cells. In words: Cellular growth inhibition assay for VCaP cells, CellTiter-Glo. Format: cell-based, human. Particulars: Homo sapiens, 72 hours. An outline of the steps:
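GI50 values come from four-parameter curve fits of luminescence data normalized to a zero baseline. Compound, in medium with 0.5% DMSO, was added one day after plating and left for 72 h before CellTiter-Glo 2.0 addition.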

Test [2] relates to T-Rex 293 cell line SC3 cells lacking increased expression of androgen receptor protein. In words: Cellular growth inhibition, T-Rex 293 SC3 cells without doxycycline (no increased androgen receptor expression), CellTiter-Glo. The class given is cell-based. To be noted: T-Rex 293 SC3 cells not exposed to doxycycline (no increased androgen receptor expression), 72 hours. The gist of the method: as §1
In general terms: In ATP-based viability assays light output follows the ATP content of the culture.

For orientation: Kd means the constant that tells how readily two partners part at equilibrium. Higher therefore signals lower affinity. As a reminder, the GI50 is the concentration at which growth is held to half of that of the control. Low values mean more potent growth inhibition, high ones less potent growth inhibition. `CC(C)N(CC1CCN(c2ncc(C(=O)N[C@H]3C(C)(C)[C@H](Oc4ccc(C#N)c(Cl)c4)C3(C)C)cn2)CC1)[C@H]1C[C@H](Oc2cccc(Oc3ccc(C(C)(C)O)cc3-c3cn(C)c(=O)c4[nH]ccc34)c2F)C1` [Compound I-214] returned a Kd at BRD4-BD2 of under 50 nM. Besides, the GI50 (in test [1]; in the test on VCaP cells; in test [2]) was under 500 nM each time.

On BRD4-BD2, `Cn1cc(-c2cc(N)ccc2Oc2cccc(OCCOC3CCN(c4ncc(C(=O)N[C@H]5C(C)(C)[C@H](Oc6ccc(C#N)c(Cl)c6)C5(C)C)cn4)CC3)c2)c2cc[nH]c2c1=O` [Compound I-62, 2-(4-(2-(3-(4-amino-2-(6-methyl-7-oxo-6,7-dihydro-1H-pyrrolo[2,3-c]pyridin-4-yl)phenoxy)phenoxy)ethoxy)piperidin-1-yl)-N-((1r, 3r)-3-(3-chloro-4-cyanophenoxy)-2,2,4,4-tetramethylcyclobutyl)pyrimidine-5-carboxamide] registered a Kd of over 2500 nM. The GI50 in test [1] is under 500 nM; in the test on VCaP cells it was under 500 nM; in test [2], over 3000 nM.

Regarding `CCS(=O)(=O)Nc1ccc(Oc2cccc(NCCOC3CCN(c4ncc(C(=O)N[C@H]5C(C)(C)[C@H](Oc6ccc(C#N)c(Cl)c6)C5(C)C)cn4)CC3)c2)c(-c2cn(C)c(=O)c3[nH]ccc23)c1` [Compound I-84], at BRD4-BD2, the Kd is under 50 nM. The GI50 (in test [1]; with VCaP cells; in test [2]) was under 500 nM in each case.

Consider `CCS(=O)(=O)Nc1ccc(Oc2cccc(COC3CCN(c4ncc(C(=O)N[C@H]5C(C)(C)[C@H](Oc6ccc(C#N)c(Cl)c6)C5(C)C)cn4)CC3)c2)c(-c2cn(C)c(=O)c3[nH]ccc23)c1` [Compound I-18, N-((1r, 3r)-3-(3-chloro-4-cyanophenoxy)-2,2,4,4-tetramethylcyclobutyl)-2-(4-((3-(4-(ethylsulfonamido)-2-(6-methyl-7-oxo-6,7-dihydro-1H-pyrrolo[2,3-c]pyridin-4-yl)phenoxy)benzyl)oxy)piperidin-1-yl)pyrimidine-5-carboxamide], for which, at BRD4-BD2, the Kd is under 50 nM. In addition, the GI50 (in test [1]; in the test on VCaP cells; in test [2]) was under 500 nM in each case.

Take `CCS(=O)(=O)c1ccc(Oc2cccc(OCCOC3CCN(c4ccc(C(=O)N[C@H]5C(C)(C)[C@H](Oc6ccc(C#N)c(Cl)c6)C5(C)C)cn4)CC3)c2F)c(-c2cn(C)c(=O)c3[nH]ccc23)c1` [Compound I-185]: at BRD4-BD2, the Kd was under 50 nM. Besides, the GI50 (in test [1]; in the test on VCaP cells; in test [2]) was under 500 nM each time.

`CCS(=O)(=O)Nc1ccc(Oc2cccc(OCCOCCOCCOCCOCCOC3CCN(c4ncc(C(=O)N[C@H]5C(C)(C)[C@H](Oc6ccc(C#N)c(Cl)c6)C5(C)C)cn4)CC3)c2)c(-c2cn(C)c(=O)c3[nH]ccc23)c1` [Compound I-8]: on BRD4-BD2, the Kd was under 50 nM. The GI50 (in test [1]; in the test on VCaP cells; in test [2]) was under 500 nM in each case.

Turning to `CCS(=O)(=O)Nc1ccc(Oc2cccc(CCN3CC4CN(c5ncc(C(=O)N[C@H]6C(C)(C)[C@H](Oc7ccc(C#N)c(Cl)c7)C6(C)C)cn5)CC4C3)c2)c(-c2cn(C)c(=O)c3[nH]ccc23)c1` (stereo partly drawn) [Compound I-119], the GI50 (in test [1]; in the test with VCaP cells; in test [2]) was under 500 nM in each case.

In the case of `Cn1cc(-c2cc(N)ccc2Oc2cccc(OCCC3CCN(c4ncc(C(=O)N[C@H]5C(C)(C)[C@H](Oc6ccc(C#N)c(Cl)c6)C5(C)C)cn4)CC3)c2)c2cc[nH]c2c1=O` [Compound I-101], the values for the GI50 (in test [1]; with VCaP cells; in test [2]) were under 500 nM, under 500 nM and over 3000 nM, respectively.

`Cn1cc(-c2cc(C(C)(C)O)ccc2Oc2ccc(N3CC(CC4CCN(c5ncc(C(=O)N[C@H]6C(C)(C)[C@H](Oc7ccc(C#N)c(Cl)c7)C6(C)C)cn5)CC4)C3)cc2)c2cc[nH]c2c1=O` [Compound I-232]: the results for the GI50 (in test [1]; in the test on VCaP cells; in test [2]) were under 500 nM, 500 to 1500 nM and over 3000 nM, respectively.
